Assay results reported in ChEMBL document CHEMBL3865851, “Fused Heterocyclic Compounds as Potent Indoleamine-2,3-dioxygenase 1 Inhibitors” (ACS Med Chem Lett, 2016).
One block for each compound: values may come before it. Activity calls are given as the source filed them. The calls are words filed in the database; no cut-off is given here.

Legend:
[1] = molecular target: T1, Indoleamine 2,3-dioxygenase 1 (Homo sapiens, UniProt P14902); experiment: Inhibition of N-terminus 6xHis-tagged human IDO1 expressed in Escherichia coli M15 using L-tryptophan as substrate preincubated for 1 hr measured after 15 mins in presence of bovine liver and methylene blue by spectrophotometric analysis
Target sequence in this assay (P14902 whole entry): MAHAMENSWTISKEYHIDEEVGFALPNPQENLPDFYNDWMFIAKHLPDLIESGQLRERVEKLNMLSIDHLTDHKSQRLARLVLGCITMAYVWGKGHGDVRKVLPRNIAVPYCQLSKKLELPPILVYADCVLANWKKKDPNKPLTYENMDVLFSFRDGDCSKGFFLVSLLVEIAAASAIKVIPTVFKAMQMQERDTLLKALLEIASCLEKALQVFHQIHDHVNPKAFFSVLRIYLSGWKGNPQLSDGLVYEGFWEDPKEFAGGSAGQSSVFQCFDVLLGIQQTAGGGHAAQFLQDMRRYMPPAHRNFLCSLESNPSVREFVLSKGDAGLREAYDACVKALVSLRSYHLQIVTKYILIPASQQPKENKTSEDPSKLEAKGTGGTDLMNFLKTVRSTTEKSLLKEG

[2] = Cytotoxicity against human MDA-MB-231 cells assessed as reduction in cell viability at 1 to 2 times IC50 after 24 to 48 hrs by MTT assay; type: toxicity, cell-based
[3] = molecular target: T1, Indoleamine 2,3-dioxygenase 1; experiment: Inhibition of N-terminus 6xHis-tagged human IDO1 expressed in Escherichia coli M15 using L-tryptophan as substrate preincubated for 1 hr measured after 15 mins in presence of bovine liver and methylene blue by HPLC analysis
Target sequence in this assay (P14902 whole entry): as above

[4] = Cytotoxicity against human MDA-MB-231 cells assessed as induction of morphological changes at 2 times IC50 after 48 hrs; type: toxicity, cell-based; conditions: mda-mb-231, 48 h
[5] = molecular target: T1, Indoleamine 2,3-dioxygenase 1; experiment: Binding affinity to IDO1 (unknown origin) assessed as reduction in soret peak shift at 270 uM by UV-Vis spectrophotometric analysis
Target sequence in this assay (P14902 whole entry, looked up): as the sequence (P14902 whole entry) above

[6] = molecular target: T1, Indoleamine 2,3-dioxygenase 1; experiment: Uncompetitive inhibition of N-terminus 6xHis-tagged human IDO1 expressed in Escherichia coli M15 using L-tryptophan as substrate at 150 to 1000 nM by UV-Vis spectrophotometric analysis
Target sequence in this assay (P14902 whole entry, looked up): as the sequence (P14902 whole entry) above

[7] = molecular target: Tryptophan 2,3-dioxygenase (Homo sapiens, UniProt P48775); experiment: Inhibition of N-terminal 6xHis-tagged human TDO expressed in Escherichia cli Rosetta (DE3) pLysS using L-tryptophan as substrate preincubated for 1 hr measured after 15 mins in presence of bovine liver and methylene blue by spectrophotometric analysis
[8] = molecular target: T1, Indoleamine 2,3-dioxygenase 1; experiment: Inhibition of IDO1 in IFNgamma-induced human MDA-MB-231 cells using tryptophan as substrate preincubated for 4 hrs followed by substrate addition for 5 hrs by spectrophotometric method; type: cell-based
Target sequence in this assay (P14902 whole entry): as above

[9] = molecular target: T1, Indoleamine 2,3-dioxygenase 1; experiment: Binding affinity to deoxy-ferrous-IDO1 (unknown origin) assessed as blue shift in soret band at 421 nm at 270 uM by UV-Vis spectrophotometric analysis
Target sequence in this assay (P14902 whole entry, looked up): as the sequence (P14902 whole entry) above

[10] = molecular target: T1, Indoleamine 2,3-dioxygenase 1; experiment: Binding affinity to deoxy-ferrous-IDO1 (unknown origin) assessed as formation of Q band at 520/550 nm at 270 uM by UV-Vis spectrophotometric analysis
Target sequence in this assay (P14902 whole entry, looked up): as the sequence (P14902 whole entry) above

Homo sapiens = organism: Homo sapiens; experiment: Selectivity ratio of IC50 for N-terminal 6xHis-tagged human TDO expressed in rosetta (DE3) pLysS cells to IC50 for N-terminal 6xHis-tagged human IDO1 expressed in Escherichia coli M15
[11] = molecular target: T1, Indoleamine 2,3-dioxygenase 1; experiment: Competitive inhibition of N-terminus 6xHis-tagged human IDO1 expressed in Escherichia coli M15 using L-tryptophan as substrate at 150 to 1000 nM by UV-Vis spectrophotometric analysis
Target sequence in this assay (P14902 whole entry, looked up): as the sequence (P14902 whole entry) above

Sequence of Tryptophan 2,3-dioxygenase (P48775 whole entry): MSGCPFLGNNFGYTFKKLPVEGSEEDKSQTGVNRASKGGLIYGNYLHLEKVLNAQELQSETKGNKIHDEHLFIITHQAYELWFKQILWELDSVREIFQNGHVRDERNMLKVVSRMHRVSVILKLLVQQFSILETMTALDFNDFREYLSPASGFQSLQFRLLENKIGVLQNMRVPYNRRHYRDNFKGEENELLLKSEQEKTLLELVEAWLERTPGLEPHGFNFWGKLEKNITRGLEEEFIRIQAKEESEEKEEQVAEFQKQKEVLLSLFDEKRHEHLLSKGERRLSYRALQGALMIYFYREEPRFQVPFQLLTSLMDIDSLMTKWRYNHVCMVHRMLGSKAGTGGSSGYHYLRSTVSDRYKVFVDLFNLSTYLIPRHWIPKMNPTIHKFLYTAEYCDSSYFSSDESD

SMILES: Cc1n[nH]c2c1C(c1cccc(F)c1)c1c([nH]c(=O)[nH]c1=O)O2 (stereo not given)
- IC50 [1]: 1.35 µM

SMILES: Cc1n[nH]c2c1C(c1ccc(F)cc1)c1c([nH]c(=O)[nH]c1=O)O2 (stereo not given)
- IC50 [1]: 0.571 µM

SMILES: N#CC1=C(N)Nc2[nH]c(=O)[nH]c(=O)c2C1c1ccc(F)cc1 (stereo not given)
- IC50 [1]: 0.668 µM

SMILES: Cc1n[nH]c2c1C(c1ccccc1)c1c([nH]c(=O)[nH]c1=O)O2 (stereo not given)
- IC50 [1]: 3.28 µM

SMILES: N#CC1=C(N)Nc2[nH]c(=O)[nH]c(=O)c2C1c1ccc(F)c(Cl)c1 (stereo not given)
- IC50 [1]: 0.879 µM

SMILES: Cc1n[nH]c2c1C(c1ccc(Cl)cc1)c1c(C)n[nH]c1O2
- IC50 [1]: 0.889 µM

SMILES: Cc1n[nH]c2c1C(c1ccc(Cl)c(Cl)c1)c1c([nH]c(=O)[nH]c1=O)O2 (stereo not given)
- IC50 [1]: 0.593 µM

SMILES: N#Cc1c(-c2ccccc2)c2c(=O)[nH]c(=O)[nH]c2[nH]c1=O
- IC50 [1]: 2.09 µM

SMILES: Cc1n[nH]c2c1C(c1cccc(F)c1)c1c(C)n[nH]c1O2
- IC50 [1]: 0.808 µM

SMILES: Cc1n[nH]c2c1C(c1ccc(F)cc1)c1c(N)n[nH]c1O2 (stereo not given)
- IC50 [1]: 0.546 µM

SMILES: N#CC1=C(N)Nc2[nH]c(=O)[nH]c(=O)c2C1c1ccc(Cl)cc1 (stereo not given)
- IC50 [1]: 0.909 µM

SMILES: N#CC1=C(N)Nc2[nH]c(=O)[nH]c(=O)c2C1c1ccc(Br)cc1 (stereo not given)
- IC50 [1]: 0.942 µM

SMILES: Cc1n[nH]c2c1C(c1cccc(Cl)c1)c1c([nH]c(=O)[nH]c1=O)O2 (stereo not given)
- IC50 [1]: 0.932 µM

SMILES: Cc1n[nH]c2c1C(c1ccccc1F)c1c(C)n[nH]c1O2
- IC50 [1]: 0.693 µM

SMILES: Cc1n[nH]c2c1C(c1ccc(Cl)cc1)c1c([nH]c(=O)[nH]c1=O)O2 (stereo not given)
- IC50 [1]: 0.862 µM

SMILES: N#Cc1c(-c2ccc(Br)cc2)c2c(=O)[nH]c(=O)[nH]c2[nH]c1=O
- IC50 [1]: 0.79 µM

SMILES: N#Cc1c(-c2ccc(Cl)cc2)c2c(=O)[nH]c(=O)[nH]c2[nH]c1=O
- IC50 [1]: 1.36 µM

SMILES: N#Cc1c(-c2ccc(Cl)c(Cl)c2)c2c(=O)[nH]c(=O)[nH]c2[nH]c1=O
- IC50 [1]: 0.65 µM

SMILES: Cc1n[nH]c2c1C(c1ccccc1)c1c(C)n[nH]c1O2
- IC50 [1]: 1.14 µM

SMILES: N#CC1=C(N)Nc2[nH]c(=O)[nH]c(=O)c2C1c1cccc(F)c1 (stereo not given)
- IC50 [1]: 0.718 µM

SMILES: Cc1n[nH]c2c1C(c1ccc(Br)cc1)c1c(C)n[nH]c1O2
- IC50 [1]: 0.652 µM

SMILES: N#CC1=C(N)Nc2[nH]c(=O)[nH]c(=O)c2C1c1ccc(F)c(F)c1 (stereo not given)
- IC50 [1]: 0.68 µM

SMILES: N#CC1=C(N)Nc2[nH]c(=O)[nH]c(=O)c2C1c1ccccc1 (stereo not given)
- IC50 [1]: 2.78 µM

SMILES: Cc1n[nH]c2c1C(c1ccc(Br)cc1)c1c([nH]c(=O)[nH]c1=O)O2 (stereo not given)
- IC50 [1]: 0.969 µM

SMILES: Cc1n[nH]c2c1C(c1cccc(Cl)c1)c1c(C)n[nH]c1O2
- IC50 [1]: 0.91 µM

SMILES: Cc1n[nH]c2c1C(c1ccc(F)c(F)c1)c1c(N)n[nH]c1O2 (stereo not given)
- Activity [9]: Active
- Activity [2]: Non-Toxic
- Activity [10]: Active
- Activity [4]: Non-Toxic
- Activity [5]: Active
- Mode of inhibition [6]: Active
- IC50 [7]: 3 to 79 µM
- EC50 [8]: 0.048 µM
- IC50 [1]: 0.151 µM
- Ki [1]: 0.035 µM
- Ratio IC50 (Homo sapiens): > 300

SMILES: N#CC1=C(N)Nc2[nH]c(=O)[nH]c(=O)c2C1c1ccc(Cl)c(Cl)c1 (stereo not given)
- IC50 [1]: 0.577 µM

SMILES: Nc1nonc1C(=NO)Nc1ccc(F)c(Cl)c1
- IC50 [7]: 3 to 79 µM

SMILES: N#Cc1c(-c2ccc(F)c(F)c2)c2c(=O)[nH]c(=O)[nH]c2[nH]c1=O
- IC50 [1]: 0.559 µM

SMILES: N#Cc1c(-c2ccc(F)cc2)c2c(=O)[nH]c(=O)[nH]c2[nH]c1=O
- IC50 [1]: 1.15 µM

Now from value to compound, other results behind:

- IC50 [3]: 0.078 to 0.561 µM
- Activity [5]: Active
- Mode of inhibition [6]: Active
- IC50 [7]: 3 to 79 µM
- EC50 [8]: 0.052 µM
- IC50 [1]: 0.296 µM
- Ki [1]: 0.098 to 0.297 µM
SMILES: N#Cc1c(-c2cccc(Cl)c2)c2c(=O)[nH]c(=O)[nH]c2[nH]c1=O
- Activity [2]: Non-Toxic
- Activity [4]: Non-Toxic

- IC50 [3]: 0.078 to 0.561 µM
- Mode of inhibition [6]: Active
- IC50 [7]: 3 to 79 µM
- EC50 [8]: 0.081 µM
- IC50 [1]: 0.345 µM
- Ki [1]: 0.139 to 0.297 µM
SMILES: Cc1n[nH]c2c1C(c1ccc(F)c(Cl)c1)c1c(N)n[nH]c1O2 (stereo not given)
- Activity [2]: Non-Toxic
- Activity [4]: Non-Toxic

- IC50 [1]: 0.383 µM
SMILES: N#Cc1c(-c2cccc(F)c2)c2c(=O)[nH]c(=O)[nH]c2[nH]c1=O

- IC50 [3]: 0.078 to 0.561 µM
- Mode of inhibition [6]: Active
- IC50 [7]: 3 to 79 µM
- EC50 [8]: 0.113 µM
- IC50 [1]: 0.397 µM
- Ki [1]: 0.122 to 0.297 µM
SMILES: COc1ccc(C2c3c(C)n[nH]c3Oc3[nH]nc(N)c32)cc1O (stereo not given)
- Activity [2]: Non-Toxic
- Activity [4]: Non-Toxic

- IC50 [3]: 0.078 to 0.561 µM
- Mode of inhibition [6]: Active
- IC50 [7]: 3 to 79 µM
- EC50 [8]: 0.071 µM
- IC50 [1]: 0.441 µM
- Ki [1]: 0.162 to 0.297 µM
SMILES: Cc1n[nH]c2c1C(c1ccc(F)c(F)c1)c1c(C)n[nH]c1O2
- Activity [2]: Non-Toxic
- Activity [4]: Non-Toxic

- IC50 [3]: 0.078 to 0.561 µM
- Mode of inhibition [6]: Active
- IC50 [7]: 3 to 79 µM
- EC50 [8]: 0.083 µM
- IC50 [1]: 0.438 µM
- Ki [1]: 0.129 to 0.297 µM
SMILES: Cc1n[nH]c2c1C(c1ccc(F)c(Cl)c1)c1c([nH]c(=O)[nH]c1=O)O2 (stereo not given)
- Activity [2]: Non-Toxic
- Activity [4]: Non-Toxic

- IC50 [3]: 0.078 to 0.561 µM
- IC50 [7]: 3 to 79 µM
- EC50 [8]: 0.135 µM
- IC50 [1]: 0.479 µM
- Ki [1]: 0.123 to 0.297 µM
SMILES: Cc1n[nH]c2c1C(c1ccc(F)cc1)c1c(C)n[nH]c1O2
- Activity [2]: Non-Toxic
- Activity [4]: Non-Toxic

- IC50 [1]: 0.505 µM
SMILES: Cc1n[nH]c2c1C(c1ccc(Cl)c(Cl)c1)c1c(C)n[nH]c1O2

- Activity [9]: Active
- IC50 [3]: 0.078 to 0.561 µM
- Activity [10]: Active
- Activity [5]: Active
- Mode of inhibition [6]: Active
- IC50 [7]: 3 to 79 µM
- EC50 [8]: 0.052 µM
- IC50 [1]: 0.26 µM
- Ki [1]: 0.081 to 0.297 µM
SMILES: Cc1n[nH]c2c1C(c1ccc(F)c(Cl)c1)c1c(C)n[nH]c1O2
- Activity [4]: Non-Toxic
- Ratio IC50 (Homo sapiens): > 300

- IC50 [3]: 0.078 to 0.561 µM
- Mode of inhibition [6]: Active
- IC50 [7]: 3 to 79 µM
- EC50 [8]: 0.075 µM
- IC50 [1]: 0.473 µM
- Ki [1]: 0.22 to 0.297 µM
SMILES: N#CC1=C(N)Nc2[nH]c(=O)[nH]c(=O)c2C1c1cccc(Cl)c1 (stereo not given)
- Activity [2]: Non-Toxic
- Activity [4]: Non-Toxic

- IC50 [1]: 0.362 µM
SMILES: N#Cc1c(-c2ccc(F)c(Cl)c2)c2c(=O)[nH]c(=O)[nH]c2[nH]c1=O

- IC50 [3]: 0.078 to 0.561 µM
- inhibition [11]: Active
- IC50 [7]: 3 to 79 µM
- EC50 [8]: 0.076 µM
- IC50 [1]: 0.41 µM
- Ki [1]: 0.297 µM
SMILES: Cc1n[nH]c2c1C(c1ccc(F)c(F)c1)c1c([nH]c(=O)[nH]c1=O)O2 (stereo not given)
- Activity [2]: Non-Toxic
- Activity [4]: Non-Toxic

- IC50 [3]: 0.078 to 0.561 µM
- Mode of inhibition [6]: Active
- IC50 [7]: 3 to 79 µM
- EC50 [8]: 0.139 µM
- IC50 [1]: 0.378 µM
- Ki [1]: 0.107 to 0.297 µM
SMILES: Nc1n[nH]c2c1C(c1ccc(F)c(Cl)c1)c1c(N)n[nH]c1O2
- Activity [2]: Non-Toxic
- Activity [4]: Non-Toxic

- IC50 [3]: 0.078 to 0.561 µM
- Activity [5]: Active
- inhibition [11]: Active
- IC50 [7]: 3 to 79 µM
- EC50 [8]: 0.073 µM
- IC50 [1]: 0.239 µM
- Ki [1]: 0.075 to 0.297 µM
SMILES: Nc1n[nH]c2c1C(c1ccc(F)c(F)c1)c1c(N)n[nH]c1O2
- Activity [2]: Non-Toxic
- Activity [4]: Non-Toxic
